Experimental findings from patent US10300130B2, “Cytomegalovirus vaccines and methods of production” (The Trustees of Princeton University, priority 2007, dated 2019) are described below.

Assay [1] relates to BFXwt. Nature of the assay: Dependence of infection on endosome acidification (IE1-positive ARPE-19 cells), BFXwt. Conditions: 50 mM NH4Cl or 40 nM BFA, 0.01 pfu/cell. Type of assay: cell-based, HCMV. The protocol: (§1) FIGS. 3A-3B. Effects of inhibitors of endosome acidification and virion source on HCMV entry into ARPE-19 cells. Experiments were performed in triplicate, and the number of positive cells in drug-treated relative to untreated cultures is reported. FIG. 3A: Cells were pretreated with NH4Cl or BFA for 1 h, inoculated with epiBADrUL131 or fibroBADrUL131 (1 pfu/cell) and stained for IE 1 16 h later. FIG. 3B: Cells were pretreated with 50 mM NH4Cl or 40 nM BFA for 1 h, and then inoculated with BADrUL131 (0.1 pfu/cell) or FIXwt (0.01 pfu/cell) produced in the indicated cell types and stained for IE1 16 h later.
(§2) ARPE-19 cells were pretreated with NH4Cl or Bafilomycin A1 (BFA) (Sigma) for 1 h at 37° C., followed by infection in the continued presence of the inhibitor. 16 h later, cultures were fixed in 2% paraformaldehyde and permeabilized with 0.1% Triton X-100. IE1 was identified by immunofluorescence using monoclonal antibody IB12 (21) plus Alexa 546-conjugated secondary antibody and nuclei were stained with DAPI. Inhibition was calculated as the percentage of IE1-expressing drug-treated relative to untreated cells.
The effect of endosomal pH on entry of the BFXwt clinical isolate into ARPE-19 cells was also assayed (FIG. 3B. right panel).

Assay [2] deals with BADrUL131. Nature of the assay: Dependence of infection on endosome acidification (IE1-positive ARPE-19 cells), BADrUL131. Type of assay: cell-based, HCMV. Conditions: 1 h pretreatment, 1 pfu/cell, IE1 16 h later. On the procedure: as §1, §2
Many viruses that enter cells by endocytosis (1, 4, 10) require acidification of endosomes for the virion envelope to fuse with the endosomal membrane and release the capsid into the cytoplasm. NH4Cl. which buffers endosomal pH, and bafilomycin A1 (BFA), which blocks the endosomal ATPase proton pump, were tested for their effect on infection of ARPE-19 cells. After pretreatment with either agent, cells were infected and cultured in drug containing medium for a further 16 h. Successful infections were scored by assaying for IE1-positive cells.

Structures are written as SMILES.

On to `CO/C1=C\C(C)=C\[C@@H](C)[C@@H](O)[C@@H](C)C/C(C)=C/C=C/[C@H](OC)[C@@H]([C@@H](C)[C@@H](O)[C@H](C)[C@@]2(O)C[C@@H](O)[C@H](C)[C@@H](C(C)C)O2)OC1=O` [BFA, Bafilomycin A1], for which, in assay [1], the “effect on number of IE1-positive ARPE-19 cells, epithelial cell-derived BFXwt” value is “only a slight inhibition” and the “effect on number of IE1-positive ARPE-19 cells, fibroblast-generated BFXwt” value is listed as “significantly reduced”. Also, in assay [2], the “effect of pretreatment on epiBADrUL131 infection (IE1-positive cells)” value is “only a modest effect” and the “effect of pretreatment on fibroBADrUL131 infection (IE1 expression)” value was “inhibited IE1 expression”.
Turning to `Cl.N` [NH4Cl], in assay [1], the “effect on number of IE1-positive ARPE-19 cells, epithelial cell-derived BFXwt” value is on record as “only a slight inhibition” and the “effect on number of IE1-positive ARPE-19 cells, fibroblast-generated BFXwt” value is “significantly reduced”. In assay [2], the “effect of pretreatment on epiBADrUL131 infection (IE1-positive cells)” value was “only a modest effect” and the “effect of pretreatment on fibroBADrUL131 infection (IE1 expression)” value is reported as “inhibited IE1 expression”.
